# Measurements: patent publication US20200038478A1, “POLYPEPTIDE AND COMPOSITION THEREOF FOR TREATING DISEASES OF METABOLIC SYSTEM” (WUHAN GRECTECH CO., LTD., priority 2017, published 2020)
# Bridge positions count the residues as written; N and C are the ends. Ends that are not written are not given here.
# Columns and labels:
# normal mice [1] = assay: Hypoglycemic effect on normal mice after administration by gavage, with or without glucose (Example 11); format: in vivo, Kunming white mice; settings: for Blood glucose level prior to administration: baseline
# normal mice [2] = assay: Hypoglycemic effect on normal mice after subcutaneous injection (Example 6); format: in vivo, Kunming white mice; settings: for Blood glucose level at 15 min after administration / Blood glucose level at 30 min after administration / Blood glucose level prior to administration: 1 mg/mL at 0.05 ml/10 g, single subcutaneous injection on the back; for Blood glucose level prior to administration: baseline
# normal mice [3] = assay: Hypoglycemic effect of synthetic polypeptides on normal mice after subcutaneous injection (Example 9); format: in vivo, Kunming white mice; settings: 1 mg/mL at 0.05 ml/10 g, single subcutaneous injection on the back
# normal mice [4] = assay: Hypoglycemic effect of the polypeptide on normal mice after tail vein injection (Example 3); format: in vivo, Kunming white mice; settings: for Blood glucose level at 15 min after administration / Blood glucose level at 30 min after administration / Blood glucose level prior to administration: single tail vein injection; for Blood glucose level prior to administration: baseline
# normal mice [5] = assay: Natural extract vs solid-phase synthetic polypeptide, normal mice, subcutaneous injection (Example 7); format: in vivo, Kunming white mice; settings: 1 mg/mL at 0.05 ml/10 g, single subcutaneous injection on the back; for Blood glucose level prior to administration: baseline
# trypsin = assay: Stability against trypsin in simulated intestinal fluid, HPLC (Example 16); format: in vitro ADME; settings: pH 6.8, 1 g trypsin per 100 mL, 37° C., 2 hours
# Description: (§1) Polypeptides were subject to enzymatic hydrolysis in simulated gastric and simulated intestinal fluids, respectively, to verify whether the polypeptides were resistance to the enzymatic hydrolysis of digestive enzymes. Control experiments were performed with albumin.
# Preparation of simulated intestinal fluid: 6.8 g of potassium dihydrogen phosphate was dissolved in 500 mL water, 0.4% (w/w) NaOH was added to adjust the pH to 6.8, and water was added to make up 1 L. 1 g trypsin per 100 mL solution was added, and after homogeneously mixing, the solution was filtered through a 0.22 μm sterile filter for use.
# (§2) 10 μL of the polypeptide solution (10 mg/mL) was added to the simulated gastric fluid (1 mL) and simulated intestinal fluid (1 mL), respectively, and after homogeneously mixing, the mixtures were incubated in a water bath at 37° C. for 2 hours.
# (§3) 1 mg of dried albumin powder was added to the simulated gastric fluid (1 mL) and simulated intestinal fluid (1 mL), respectively, and after homogeneously mixing, the mixtures were incubateed in a water bath at 37° C. for 2 hours.
# (§4) The above enzymatic mixtures were detected by using HPLC.
# (§5) Chromatographic conditions: mobile phase, water (containing 0.1% TFA)+acetonitrile (containing 0.1% TFA), gradient elution from 15% to 50% acetonitrile for 25 min, flow rate of 1 mL/min, detection wavelength of 214 nm, injection volume of 20 ul.
# pepsin = target: T1, pepsin (Sus scrofa, UniProt P00791); assay: Stability against pepsin in simulated gastric fluid, HPLC (Example 16); format: in vitro ADME; settings: pH 1.5, 1 g pepsin per 100 mL, 37° C., 2 hours
# T1 construct: purchased Sigma-Aldrich Company Ltd
# Description: as §1
# Preparation of simulated gastric fluid: water was added to diluted hydrochloric acid with a concentration of 1 mol/L, to adjust the pH to 1.5. 1 g pepsin per 100 mL solution was added, and after homogeneously mixing, the solution was filtered through a 0.22 μm sterile filter for use.
# as §2, §3, §4, §5
# [6] = system: mouse models of type 2 diabetes; assay: Polypeptide mixture vs insulin, mouse models of type 2 diabetes, subcutaneous injection (Example 14); settings: KK mice, single subcutaneous injection on the back, polypeptide 2 mg/mL, insulin 0.5 U/mL, each 0.05 ml/10 g
# [7] = system: mouse models of type 2 diabetes; assay: Polypeptide mixture vs insulin, mouse models of type 2 diabetes, tail vein injection (Example 13); settings: KK mice, single tail vein injection, polypeptide 2 mg/mL, insulin 0.5 U/mL, each 0.05 ml/10 g
# normal mice [8] = assay: Polypeptide vs insulin on normal mice after tail vein injection (Example 10); format: in vivo, Kunming white mice; settings: single tail vein injection, polypeptide 2 mg/mL at 0.05 ml/10 g (10 mg/kg), insulin 0.5 U/mL (2.5 U/kg)
# [9] = system: mouse models of type 2 diabetes; assay: Polypeptide mixture vs insulin, mouse models of type 2 diabetes, intramuscular injection (Example 15); settings: KK mice, single intramuscular injection in the lateral thigh, polypeptide 2 mg/mL, insulin 0.5 U/mL, each 0.05 ml/10 g
# [10] = Group B, 1 mg/mL polypeptide in saline at 0.10 ml/10 g
# [11] = Group C polypeptide+glucose, 1 mg/mL polypeptide in 10% glucose solution at 0.10 ml/10 g
# [12] = Group A high-dose, 1 mg/mL at 0.10 ml/10 g
# [13] = Group B medium-dose, 1 mg/mL at 0.05 ml/10 g
# [14] = Group C low-dose, 1 mg/mL at 0.025 ml/10 g
# T1 sequence (P00791 60-385): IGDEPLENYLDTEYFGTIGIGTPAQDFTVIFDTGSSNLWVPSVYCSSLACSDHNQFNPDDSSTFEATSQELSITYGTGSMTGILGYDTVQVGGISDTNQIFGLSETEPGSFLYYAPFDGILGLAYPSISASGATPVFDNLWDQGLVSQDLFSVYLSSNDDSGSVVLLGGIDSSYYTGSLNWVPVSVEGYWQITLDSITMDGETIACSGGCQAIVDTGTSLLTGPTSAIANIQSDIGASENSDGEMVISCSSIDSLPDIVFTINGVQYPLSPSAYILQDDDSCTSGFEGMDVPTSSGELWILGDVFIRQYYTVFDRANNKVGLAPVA
substance,measurement,setting,value
"ASCNGVCSPFDIPPCGSPLCRCIPVGLVIGKCRNPYG (disulfide 15-32, 3-20, 7-22; listed as Pisum sativum) [SEQ ID No. 10]",Blood glucose level at 15 min after administration,normal mice [1]; [10],6.9 ± 0.3 mmol/L
same,Blood glucose level at 30 min after administration,normal mice [1]; [10],6.4 ± 0.2 mmol/L
same,Blood glucose level at 45 min after administration,normal mice [1]; [10],6.1 ± 0.3 mmol/L
same,Blood glucose level at 60 min after administration,normal mice [1]; [10],6.1 ± 0.2 mmol/L
same,Blood glucose level prior to administration,normal mice [1]; [10],6.7 ± 0.6 mmol/L
same,Blood glucose level at 15 min after administration,normal mice [1]; [11],7.1 ± 0.3 mmol/L
same,Blood glucose level at 30 min after administration,normal mice [1]; [11],6.9 ± 0.2 mmol/L
same,Blood glucose level at 45 min after administration,normal mice [1]; [11],6.6 ± 0.3 mmol/L
same,Blood glucose level at 60 min after administration,normal mice [1]; [11],6.2 ± 0.2 mmol/L
same,Blood glucose level prior to administration,normal mice [1]; [11],6.8 ± 0.4 mmol/L
"ASCNGVCSPFEMPPCGSSACRCIPVGLVVGYCRHPSG (listed as Pisum sativum) [SEQ ID No. 72, extracted polypeptide with H at position 34, outside general formula (I); raised blood glucose]",Blood glucose level at 15 min after administration,normal mice [2],8.91 ± 0.7 mmol/L
same,Blood glucose level at 30 min after administration,normal mice [2],10.4 ± 0.8 mmol/L
same,Blood glucose level prior to administration,normal mice [2],7.3 ± 0.6 mmol/L
same,hypoglycemic activity (conclusion),"normal mice [2]; normal mice, subcutaneous injection",no hypoglycemic activity
"ASCNGVCSPFEMPPCGSSACRCIPVGLVVGYCRNPSG (disulfide 15-32, 3-20, 7-22) [SEQ ID No. 26]",Blood glucose level at 15 min after administration,normal mice [2],5.3 ± 0.4 mmol/L
same,Blood glucose level at 30 min after administration,normal mice [2],4.4 ± 0.3 mmol/L
same,Blood glucose level prior to administration,normal mice [2],7.1 ± 0.5 mmol/L
same,Blood glucose level at 15 min after administration,normal mice [3],5.3 ± 0.4 mmol/L
same,Blood glucose level at 30 min after administration,normal mice [3],4.6 ± 0.3 mmol/L
same,Blood glucose level at 45 min after administration,normal mice [3],3.2 ± 0.2 mmol/L
same,Blood glucose level at 60 min after administration,normal mice [3],2.1 ± 0.2 mmol/L
same,Blood glucose level prior to administration,normal mice [3]; baseline,6.8 ± 0.3 mmol/L
"ASCNGVCSPFEMPPCGTSACRCIPVGLFIGYCRNPSG (disulfide 15-32, 3-20, 7-22; listed as Pisum sativum) [SEQ ID No. 7]",Blood glucose level at 15 min after administration,normal mice [4]; [12],3.3 ± 0.3 mmol/L
same,Blood glucose level at 30 min after administration,normal mice [4]; [12],2.1 ± 0.3 mmol/L
same,Blood glucose level prior to administration,normal mice [4]; [12],7.1 ± 0.5 mmol/L
same,Blood glucose level at 15 min after administration,normal mice [4]; [13],4.3 ± 0.4 mmol/L
same,Blood glucose level at 30 min after administration,normal mice [4]; [13],3.3 ± 0.3 mmol/L
same,Blood glucose level prior to administration,normal mice [4]; [13],7.9 ± 0.6 mmol/L
same,Blood glucose level at 15 min after administration,normal mice [4]; [14],5.7 ± 0.3 mmol/L
same,Blood glucose level at 30 min after administration,normal mice [4]; [14],4.3 ± 0.3 mmol/L
same,Blood glucose level prior to administration,normal mice [4]; [14],6.9 ± 0.5 mmol/L
same,hypoglycemic activity (conclusion),"normal mice [4]; normal mice, intravenous injection",explicit hypoglycemic activity
"ASCNGVCSPFEMPPCGTSACRCIPVGLVVGYCRNPSG [Polypeptide A] (disulfide 15-32, 3-20, 7-22; listed as Pisum sativum)",Blood glucose level at 15 min after administration,normal mice [5],5.2 ± 0.4 mmol/L
same,Blood glucose level at 30 min after administration,normal mice [5],4.4 ± 0.5 mmol/L
same,Blood glucose level at 45 min after administration,normal mice [5],3.6 ± 0.3 mmol/L
same,Blood glucose level at 60 min after administration,normal mice [5],2.2 ± 0.2 mmol/L
same,Blood glucose level prior to administration,normal mice [5],6.8 ± 0.5 mmol/L
"ASCNGVCSPFEMPPCGTSACRCIPVGLVVGYCRNPSG [Polypeptide B] (disulfide 15-32, 3-20, 7-22; listed as Pisum sativum)",Blood glucose level at 15 min after administration,normal mice [5],5.5 ± 0.3 mmol/L
same,Blood glucose level at 30 min after administration,normal mice [5],4.6 ± 0.2 mmol/L
same,Blood glucose level at 45 min after administration,normal mice [5],3.3 ± 0.2 mmol/L
same,Blood glucose level at 60 min after administration,normal mice [5],2.4 ± 0.1 mmol/L
same,Blood glucose level prior to administration,normal mice [5],7.2 ± 0.6 mmol/L
Albumin: Serum albumin (bovine) standard,enzymatic hydrolysis in simulated intestinal fluid,trypsin,completely enzymatically hydrolyzed
same,enzymatic hydrolysis in simulated gastric fluid,pepsin,completely enzymatically hydrolyzed
Insulin,Blood glucose level at 15 min after administration,[6],8.8 ± 0.8 mmol/L
same,Blood glucose level at 30 min after administration,[6],7.1 ± 0.7 mmol/L
same,Blood glucose level at 45 min after administration,[6],6.4 ± 0.5 mmol/L
same,Blood glucose level at 60 min after administration,[6],5.0 ± 0.4 mmol/L
same,Blood glucose level prior to administration,[6]; baseline,11.6 ± 1.1 mmol/L
same,Blood glucose level at 15 min after administration,[7],8.5 ± 0.7 mmol/L
same,Blood glucose level at 30 min after administration,[7],7.5 ± 0.4 mmol/L
same,Blood glucose level at 45 min after administration,[7],6.1 ± 0.4 mmol/L
same,Blood glucose level at 60 min after administration,[7],4.8 ± 0.3 mmol/L
same,Blood glucose level prior to administration,[7]; baseline,14.3 ± 0.9 mmol/L
same,Blood glucose level at 15 min after administration,normal mice [8],5.2 ± 0.4 mmol/L
same,Blood glucose level at 30 min after administration,normal mice [8],3.6 ± 0.3 mmol/L
same,Blood glucose level at 45 min after administration,normal mice [8],2.7 ± 0.4 mmol/L
same,Blood glucose level at 60 min after administration,normal mice [8],2.2 ± 0.2 mmol/L
same,Blood glucose level prior to administration,normal mice [8]; baseline,7.7 ± 0.6 mmol/L
same,Blood glucose level at 15 min after administration,[9],11.1 ± 0.9 mmol/L
same,Blood glucose level at 30 min after administration,[9],9.6 ± 0.7 mmol/L
same,Blood glucose level at 45 min after administration,[9],7.3 ± 0.8 mmol/L
same,Blood glucose level at 60 min after administration,[9],5.2 ± 0.4 mmol/L
same,Blood glucose level prior to administration,[9]; baseline,13.4 ± 1.1 mmol/L
